# How the values were obtained:
# [1] = test system: Lactobacillus plantarum
# [2] = test system: Lactobacillus casei shirota; assay: Lactobacillus casei shirota viable plate counts after SGF treatment with or without colostrum; details: L. casei shirota, no colostrum
# [3] = test system: Lactobacillus plantarum; parameters: species or system mice; details: mouse, in vivo
compound,measurement,setting,value
Lactobacillus plantarum [Lactobacillus + H2O],reduction in Lactobacillus viability,[1],1000 fold
Lactobacillus casei shirota [Lactobacillus + H2O],reduction in Lactobacillus viability,[2],"≥ 10,000 fold"
"O=C([O-])O.[Na+] [sodium bicarbonate, Sodium bicarbonate]","survival of Lactobacillus plantarum (large intestine, FIG. 7)",[3],increased
same,survival of Lactobacillus plantarum at higher concentrations of protectant,[3],increased survival
